Data on one compound can be found in patent US6960470B1 (priority 1998, dated 2005).

The assay has as its system hippocampal slices from wt and Δ9 mutant (PS-1) animals. Format: cell-based. As to conditions: flunitrazepam in the bathing medium; Δ9 mutant slices.

For the compound `CN1C(=O)CN=C(c2ccccc2F)c2cc([N+](=O)[O-])ccc21` [flunitrazepam], the “potentiation in mutants (+FLU) compared with the wt (−FLU)” value is on record as “potentiation to almost the wt levels”.
